Earlier results on one substance are cited in patent US6403864B1, “Precursor polypeptide of a plant growth factor, a gene encoding a precursor polypeptide of a plant growth factor and a method for promotion of plant growth” (Nagoya University, priority 1999, dated 2002).

Where no end group is shown, it is not given here. [ ]: non-standard residue; d: D form. sY = N[C@@H](Cc1ccc(OS(=O)(=O)O)cc1)C(=O)O

The subject of this data set is plant cell. The note with it: compared with PSK-α.

Consider [sY]I[sY]T [PSK-β], for which the “Cell proliferation activity relative to PSK-α” value is “less than one-tenth”.
